Experimental data reported in patent US20050096370A1, “Method for inhibiting tumor angiogenesis and tumor growth” (Bizbiotech Co., Ltd., priority 2003, published 2005).

Tested on: human cancer xenografts (Hep3B, NCI-H87, SiHa, SK-N-MC, Caki-1)
Assay: counts of HIF-1α-positive cells and CD31-positive vessels in xenograft tumor sections
Assay type: in vivo, nude mice
Conditions: regardless of cell origin, treated 2 weeks, P<0.01
Description: FIG. 10 is a histogram showing HIF-1α expression detected by immunohistochemistry in human cancer xenografts derived from Hep3B hepatoma, NCI-H87 gastric carcinoma, SiHa cervical carcinoma, SK-N-MC neuroblastoma, or Caki-1 renal carcinoma cells. Male nude mice were injected subcutaneously in the flank with 5×10^6 viable tumor cells. […] After the last treatment, the mice were euthanized, the tumors removed, fixed with formalin, embedded in paraffin and processed for hinmunohistochemistry to detect HIF-1α-positive cells. […] Each bar represents the mean with lower or upper 95% confidence interval. Differences between treatment groups were compared using a Mann-Whitney U test. […]
FIG. 11 is a histogram showing vascular density detected by immunohistochemistry in human cancer xenografts derived from Hep3B hepatoma, NCI-H87 gastric carcinoma, SiHa cervical carcinoma, SK-N-MC neuroblastoma, or Caki-1 renal carcinoma cells. […]
We further quantified the numbers of HIF-1α-positive cells and CD31-positive vessels in tumor sections from vehicle- and YC-1-treated mice. […] The expression of HIF-1α and the vessel density were measured by counting the numbers of immunopositive cells and vessel profiles (identified by CD31 staining) per mm^2 under microscopic images. We analyzed ten or more different lesions per xenograft tumor.

## OCc1ccc(-c2nn(Cc3ccccc3)c3ccccc23)o1 [YC-1, 3-(5′-hydroxymethyl-2′-furyl)-1-benzylindazole]
  blood vessel formation (CD31 vessel profiles per mm^2): statistically significantly inhibited
  expression of HIF-1α protein (immunopositive cells per mm^2): statistically significantly inhibited
